Measurements as given in US8481496B2, “Gold (III) complexes with oligopeptides functionalized with sulfur donors and use thereof as antitumor agents” (Universita' Degli Studi di Padova, priority 2009, dated 2013).

What was measured:
MDA-MB-231 tumor = settings: MDA-MB-231 tumor-bearing nude mice; cited from earlier work
[1] = system: cisplatin-sensitive (2008) and -resistant (C13*) human ovarian carcinoma cells; settings: cited from earlier work
[2] = system: human prostate carcinoma PC3 cells; assay: In vitro cytotoxicity, BrdU cell proliferation ELISA; type: cell-based; settings: 72 h exposure, 0.05-10 μM
Description: Human prostate carcinoma PC3 cells (established from bone marrow metastasis and unresponsive to androgen treatment) were cultured in IMDM (Iscove's Modified Dulbecco's medium) supplemented with 10% heat-inactivated fetal bovine serum (FBS), penicillin (2 mg mL^−1), streptomycin (2 mg mL^−1), L-glutamine (0.1% w/v) at 37° C. in 5% CO2 and moisture-enriched atmosphere.
Before use, [Au^IIIX2(pdtc)] complexes (AUD6, AUD7, AUD8, AUD9) and cisplatin were dissolved in methyl sulfoxide (DMSO) just before the experiments. Calculated amounts of drug solutions were then added to the proper medium to a final concentration of 0.5% (v/v) DMSO which had no discernible effect on cell death.
For the cytotoxicity assay, cells (2.5×10^3 cells mL^−1) were seeded in 96-well flat-bottomed microplates in IMDM supplemented with 10% heat-inactivated FBS and incubated at 37° C. in a 5% CO2 atmosphere. The medium was then removed and replaced with a fresh one containing the compounds to be studied (previously dissolved in DMSO) at increasing concentrations (0.05-10 μM), thus exposing cells to the investigated compounds for 72 h. Triplicate cultures were established for each treatment. Cell viability was determined by a cell proliferation ELISA 5-bromo-2′-deoxyuridine colorimetric kit, according to the manufacturer's protocol. […] For comparison purposes, the cytotoxicity of cisplatin was evaluated under the same experimental conditions.

[3] = system: estrogen receptor α-negative human breast cancer MDA-MB-231 cells; assay: Growth inhibition, MTT assay; type: cell-based; settings: 1-50 μM, 22 h, FIG. 2
Description: The growth-inhibitory effect of AUD6 and AUD8 on estrogen receptor α-negative human breast cancer MDA-MB-231 cells has been also evaluated. Cells were grown in RPMI 1640 medium supplemented with 10% heat-inactivated fetal bovine serum, penicillin (100 units mL^−1), streptomycin (100 μg mL^−1), L-glutamine (0.1% w/v) at 37° C. in 5% CO2 and moisture-enriched atmosphere. For the cytotoxicity assay, cells were seeded in 96-well microplates in RPMI 1640 medium and grown to 70% to 80% confluency followed by addition of the compounds to be studied (previously dissolved in DMSO) at increasing concentrations (1-50 μM) and incubated at 37° C. in a 5% CO2 atmosphere, thus exposing cells to the investigated compounds for 22 h. Triplicate cultures were established for each treatment. Cell respiration, as an indicator of cell viability, was determined by the mitochondrial-dependent reduction of MTT (3-(4,5-dimethylthiazol-2-yl)-2,5-diphenyltetrazolium bromide) to formazan as previously described [V. Milacic, D. Chen, L. Ronconi, K. R. Landis-Piwowar, D. Fregona, Q. P. Dou, Cancer Res. 2006, 66, 10478-10486]. Cell viability was calculated by dividing the average absorbance of the cells treated with the test compounds by that of the control, the standard deviation being estimated from the average of three trials.

[4] = molecular target: T1, MDA-MB-231 whole cell extract (Homo sapiens, UniProt P28074); assay: Inhibition of proteasomal chymotrypsin-like activity, whole cell extract; type: biochemical; settings: for potency relative to previously investigated Au(III)-dithiocarbamato analogues: MDA-MB-231 whole cell extract; for inhibition of proteasomal chymotrypsin-like activity: MDA-MB-231 whole cell extract (10 μg), 0.1-25 μM, 2 h, FIG. 3B
T1 construct: MDA-MB-231 whole cell extract (10 μg); endogenous in cells; host or cells: MDA-MB-231 whole cell extract
T1 sequence (P28074 60-263): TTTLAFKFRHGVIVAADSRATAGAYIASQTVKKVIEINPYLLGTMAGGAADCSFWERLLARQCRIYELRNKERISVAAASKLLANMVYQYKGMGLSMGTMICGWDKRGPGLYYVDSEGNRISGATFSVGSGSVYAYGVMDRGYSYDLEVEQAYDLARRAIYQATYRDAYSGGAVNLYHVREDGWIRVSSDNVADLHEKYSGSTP
Description: (§1) To investigate whether these compounds could also have the proteasome as a biological target, purified rabbit 20S proteasome (35 ng) or MDA-MB-231 whole cell extract (10 μg) were incubated with 20 μM of the substrate (for proteasomal chymotryptic (CT) activity) in 100 μL assay buffer (20 mmol L^−1 Tris-HCl (pH 7.5) in the presence of the compounds to be studied (previously dissolved in DMSO) at increasing concentrations (0.1-25 μM) or equivalent volume of neat DMSO as control. After 2 h incubation at 37° C., inhibition of each proteasomal chymotryptic activity was measured as previously described [V. Milacic et al. 2006, ref. cit.].

[5] = system: purified rabbit 20S proteasome; assay: Inhibition of proteasomal chymotrypsin-like activity, purified proteasome; type: biochemical; settings: for potency relative to previously investigated Au(III)-dithiocarbamato analogues: purified rabbit 20S proteasome; for inhibition of proteasomal chymotrypsin-like activity: purified rabbit 20S proteasome (35 ng), 0.1-25 μM, 2 h, FIG. 3A
Description: as §1

[6] = system: proteasome target proteins, such as Bax and p27; assay: Accumulation of proteasome target proteins; type: cell-based; settings: preliminary
[7] = system: human breast cancer (MDA-MB-231) xenografts; assay: Human breast tumor xenograft experiments; type: in vivo; settings: 1.0 mg kg−1 s.c. daily, after 13 days, female athymic nude mice
Description: Estrogen receptor α-negative human breast cancer MDA-MB-231 cells were grown in RPMI 1640 medium supplemented with 10% fetal bovine serum, penicillin (100 units mL^−1), and streptomycin (100 μg mL^−1) at 37° C. in 5% CO2 and moisture-enriched atmosphere.
Five week-old female athymic nude mice were purchased from Taconic Research Animal Services (Hudson) and housed according to protocols approved by the Institutional Laboratory Animal Care and Use Committee of Wayne State University. MDA-MB-231 cells (5.0×10^6 cells mL^−1 suspended in 0.1 mL of serum-free RPMI 1640 medium) were inoculated subcutaneously (s.c.) in right flank of each mouse (four mice per group). When tumors reached the size of ca. 120 mm^3, mice were randomly grouped and treated daily with s.c. injection of either 1.0 mg kg^−1 of AUD6 or AUD8, or vehicle [10% DMSO, 20% Cremophore/ethanol (3:1) and 70% PBS]. Tumor size was measured every other day using calipers and their volumes were calculated according to the formula width^2×length/2. Mice have being treated for 13 days. Initial tumor growth inhibition was analyzed.

Compound: CN(C)C1=[S+][Au-]([Br])([Br])[S]1 [[Au^IIIBr2(DMDT)]]
- inhibition of tumor growth (MDA-MB-231 tumor): significant inhibition of tumor growth

Compound: CCOC(=O)CN(C)C(=S)[S][Pt][Cl].c1ccncc1 [[Pt^IICl(ESDT)(py)]]
- inhibition of tumor cell growth compared with cisplatin ([1]; 2008 and C13* cells): greater inhibition of tumor cell growth than cisplatin
- cross-resistance in C13* cells ([1]; cisplatin-resistant C13* cells): complete lack of cross-resistance

Compound: N.N.[Cl][Pt][Cl] [cisplatin, cis-dichlorodiamminoplatinum(II), reference compound]
- IC50 [2]: 2600 ± 200 nM

Compound: [Au^IIIBr2((t-Bu)O-Aib-Sar-dtc)] [AUD8]
- growth-inhibitory effect on MDA-MB-231 cells [3]: slightly higher activity
- potency relative to previously investigated Au(III)-dithiocarbamato analogues [4]: two-fold more potent
- inhibition of proteasomal chymotrypsin-like activity [4]: concentration-dependent
- potency relative to previously investigated Au(III)-dithiocarbamato analogues [5]: two-fold more potent
- inhibition of proteasomal chymotrypsin-like activity [5]: concentration-dependent
- accumulation of proteasome target proteins (Bax, p27) [6]: induce accumulation of proteasome target proteins
- IC50 [2]: 550 ± 50 nM
- tumor growth inhibition [7]: > 90%

Compound: [Au^IIIBr2((t-Bu)O-Gly-Sar-dtc)] [AUD6]
- potency relative to previously investigated Au(III)-dithiocarbamato analogues [4]: two-fold more potent
- inhibition of proteasomal chymotrypsin-like activity [4]: concentration-dependent
- potency relative to previously investigated Au(III)-dithiocarbamato analogues [5]: two-fold more potent
- inhibition of proteasomal chymotrypsin-like activity [5]: concentration-dependent
- accumulation of proteasome target proteins (Bax, p27) [6]: induce accumulation of proteasome target proteins
- IC50 [2]: 850 ± 70 nM
- tumor growth inhibition [7]: ca. 33%

Compound: [Au^IIICl2((t-Bu)O-Aib-Sar-dtc)] [AUD9]
- IC50 [2]: 750 ± 60 nM

Compound: [Au^IIICl2((t-Bu)O-Gly-Sar-dtc)] [AUD7]
- IC50 [2]: 1000 ± 100 nM
